Experimental data from PubChem BioAssay AID328 (DTP/NCI, 2004).
“And” between values parts separate entries of the source, which are not always exact repeats. Equal values may be shown once. Toxic doses and inconclusive results are not listed.

Test system: BDF1 mice, P388 leukemia ip, median survival T/C
Experiment: NCI In Vivo Anticancer Drug Screen. Data for tumor model P388 Leukemia (intraperitoneal) in B6D2F1 (BDF1) mice
Conditions: endpoint: median survival time, higher = longer survival
In short: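 Vehicle-dosed animals serve as the reference; survival of compound-dosed, tumour-implanted mice is divided by it.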

[1] = dose: 12.5 mg/kg/injection, schedule: Q01DX009 (ip), vehicle: saline
[2] = dose: 12.5 mg/kg/injection, schedule: Q01DX009 (ip), vehicle: saline with Tween-80
[3] = dose: 25.0 mg/kg/injection, schedule: Q01DX009 (ip), vehicle: saline with Tween-80
[4] = dose: 100.0 mg/kg/injection, schedule: Q01DX009 (ip), vehicle: saline with Tween-80
[5] = dose: 100.0 mg/kg/injection, schedule: Q04DX003 (ip), vehicle: saline with Tween-80
[6] = dose: 200.0 mg/kg/injection, schedule: Q01DX009 (ip), vehicle: saline with Tween-80
[7] = dose: 200.0 mg/kg/injection, schedule: Q04DX003 (ip), vehicle: saline with Tween-80
[8] = dose: 400.0 mg/kg/injection, schedule: Q04DX003 (ip), vehicle: saline with Tween-80
[9] = dose: 50.0 mg/kg/injection, schedule: Q01DX009 (ip), vehicle: saline with Tween-80
[10] = dose: 100.0 mg/kg/injection, schedule: Q01DX009 (ip), vehicle: Klucel (hydroxypropylcellulose) (HPC)
[11] = dose: 100.0 mg/kg/injection, schedule: Q04DX003 (ip), vehicle: Klucel (hydroxypropylcellulose) (HPC)
[12] = dose: 200.0 mg/kg/injection, schedule: Q01DX009 (ip), vehicle: Klucel (hydroxypropylcellulose) (HPC)
[13] = dose: 200.0 mg/kg/injection, schedule: Q04DX003 (ip), vehicle: Klucel (hydroxypropylcellulose) (HPC)
[14] = dose: 400.0 mg/kg/injection, schedule: Q01DX009 (ip), vehicle: Klucel (hydroxypropylcellulose) (HPC)
[15] = dose: 400.0 mg/kg/injection, schedule: Q04DX003 (ip), vehicle: Klucel (hydroxypropylcellulose) (HPC)

## C[Se]c1ncnc2c(C3OC(CO)C(O)C3O)[nH]nc12 (stereo not given)
dose: 0.5 mg/kg/injection, schedule: Q01DX009 (ip), vehicle: saline with Tween-80
  T/C: 118 % of control
dose: 1.0 mg/kg/injection, schedule: Q01DX009 (ip), vehicle: saline with Tween-80
  T/C: 90 % of control
dose: 2.0 mg/kg/injection, schedule: Q01DX009 (ip), vehicle: saline with Tween-80
  T/C: 109 % of control
dose: 4.0 mg/kg/injection, schedule: Q01DX009 (ip), vehicle: saline with Tween-80
  T/C: 100 % of control
dose: 6.25 mg/kg/injection, schedule: Q01DX009 (ip), vehicle: saline
  T/C: 114 % of control
dose: 8.0 mg/kg/injection, schedule: Q01DX009 (ip), vehicle: saline with Tween-80
  T/C: 90 % of control
[1]
  T/C: 98 % of control
dose: 12.5 mg/kg/injection, schedule: Q04DX003 (ip), vehicle: saline
  T/C: 98 % of control
dose: 25.0 mg/kg/injection, schedule: Q04DX003 (ip), vehicle: saline
  T/C: 92 % of control

## COc1cc2cc3c4ccc(OC)c(OC)c4cc[n+]3c(C)c2cc1OC (tested in a mixture with another compound)
dose: 20.0 mg/kg/injection, schedule: Q01DX009 (ip), vehicle: saline
  T/C: 164 % of control
dose: 40.0 mg/kg/injection, schedule: Q01DX009 (ip), vehicle: saline
  T/C: 150 % of control and 156 % of control
dose: 80.0 mg/kg/injection, schedule: Q01DX009 (ip), vehicle: saline
  T/C: 168 % of control and 172 % of control
dose: 120.0 mg/kg/injection, schedule: Q01DX009 (ip), vehicle: saline
  T/C: 172 % of control and 185 % of control

## O=C(c1c(F)c(F)c(F)c(F)c1F)N1CC1
dose: 25.0 mg/kg/injection, schedule: Q01DX009 (ip), vehicle: water
  T/C: 106 % of control
dose: 25.0 mg/kg/injection, schedule: Q04DX003 (ip), vehicle: water
  T/C: 104 % of control
dose: 50.0 mg/kg/injection, schedule: Q01DX009 (ip), vehicle: water
  T/C: 111 % of control
dose: 50.0 mg/kg/injection, schedule: Q04DX003 (ip), vehicle: water
  T/C: 91 % of control
dose: 100.0 mg/kg/injection, schedule: Q01DX009 (ip), vehicle: water
  T/C: 111 % of control
dose: 100.0 mg/kg/injection, schedule: Q04DX003 (ip), vehicle: water
  T/C: 106 % of control
dose: 200.0 mg/kg/injection, schedule: Q01DX009 (ip), vehicle: water
  T/C: 97 % of control
dose: 200.0 mg/kg/injection, schedule: Q04DX003 (ip), vehicle: water
  T/C: 106 % of control
dose: 400.0 mg/kg/injection, schedule: Q01DX009 (ip), vehicle: water
  T/C: 100 % of control
dose: 400.0 mg/kg/injection, schedule: Q04DX003 (ip), vehicle: water
  T/C: 100 % of control

## O=C(Nc1ncc([N+](=O)[O-])s1)c1cccc([N+](=O)[O-])c1
dose: 6.25 mg/kg/injection, schedule: Q01DX009 (ip), vehicle: saline with Tween-80
  T/C: 99 % of control
[2]
  T/C: 94 % of control
[3]
  T/C: 93 % of control

## CC1=CCCC(C)C12CCC(C(C)(C)O)C2 (stereo not given)
[4]
  T/C: 92 % of control
[5]
  T/C: 100 % of control
[6]
  T/C: 92 % of control
[7]
  T/C: 113 % of control
[8]
  T/C: 118 % of control

## C=C(C)C1CCC2(C=O)CCC3(C)C(CCC4C5(C)CCC(O)C(C)(C)C5CCC43C)C12 (stereo not given)
dose: 18.75 mg/kg/injection, schedule: Q01DX009 (ip), vehicle: Klucel (hydroxypropylcellulose) (HPC)
  T/C: 91 % of control
dose: 37.5 mg/kg/injection, schedule: Q01DX009 (ip), vehicle: Klucel (hydroxypropylcellulose) (HPC)
  T/C: 88 % of control
dose: 75.0 mg/kg/injection, schedule: Q01DX009 (ip), vehicle: Klucel (hydroxypropylcellulose) (HPC)
  T/C: 95 % of control

## COc1ccc(C2NC(=S)NC3=C2CCCC3)cc1 (stereo not given)
[9]
  T/C: 96 % of control
[4]
  T/C: 107 % of control
[6]
  T/C: 98 % of control

## NC(=O)C1(C(N)=O)CCC1
[10]
  T/C: 100 % of control
[11]
  T/C: 100 % of control
[12]
  T/C: 110 % of control
[13]
  T/C: 100 % of control
[14]
  T/C: 100 % of control
[15]
  T/C: 100 % of control

## CC(=O)Nc1ccc(S(=O)(=O)NNC(=O)C(=O)Nc2cccc(Cl)c2)cc1
dose: 50.0 mg/kg/injection, schedule: Q01DX005 (ip), vehicle: saline with Tween-80
  T/C: 96 % of control
dose: 100.0 mg/kg/injection, schedule: Q01DX005 (ip), vehicle: saline with Tween-80
  T/C: 89 % of control
dose: 200.0 mg/kg/injection, schedule: Q01DX005 (ip), vehicle: saline with Tween-80
  T/C: 96 % of control

## CC(C)CCCc1c[nH]c(=O)[nH]c1=O
dose: 100.0 mg/kg/injection, schedule: Q01DX001 (ip), vehicle: Klucel (hydroxypropylcellulose) (HPC)
  T/C: 90 % of control
[10]
  T/C: 86 % of control
dose: 200.0 mg/kg/injection, schedule: Q01DX001 (ip), vehicle: Klucel (hydroxypropylcellulose) (HPC)
  T/C: 90 % of control
[12]
  T/C: 86 % of control
dose: 400.0 mg/kg/injection, schedule: Q01DX001 (ip), vehicle: Klucel (hydroxypropylcellulose) (HPC)
  T/C: 90 % of control
[14]
  T/C: 91 % of control

## Cc1ccccc1/C=C1\CC(C)(C)c2ccccc2C1=O
[10]
  T/C: 100 % of control
[11]
  T/C: 95 % of control
[12]
  T/C: 95 % of control
[13]
  T/C: 95 % of control
[14]
  T/C: 104 % of control
[15]
  T/C: 95 % of control

## COc1cc2ccc3c4cc5c(cc4cnc3c2cc1OC)OCO5
[2]
  T/C: 109 % of control and 119 % of control
dose: 12.5 mg/kg/injection, schedule: Q04DX003 (ip), vehicle: saline with Tween-80
  T/C: 102 % of control
[3]
  T/C: 106 % of control
dose: 25.0 mg/kg/injection, schedule: Q04DX003 (ip), vehicle: saline with Tween-80
  T/C: 100 % of control
[9]
  T/C: 106 % of control
dose: 50.0 mg/kg/injection, schedule: Q04DX003 (ip), vehicle: saline with Tween-80
  T/C: 92 % of control
[4]
  T/C: 99 % of control and 100 % of control and 114 % of control
[6]
  T/C: 107 % of control and 111 % of control
dose: 400.0 mg/kg/injection, schedule: Q01DX009 (ip), vehicle: saline with Tween-80
  T/C: 101 % of control and 124 % of control
[8]
  T/C: 92 % of control

## Cc1nc(Br)c2cnccn12
[1]
  T/C: 118 % of control
dose: 25.0 mg/kg/injection, schedule: Q01DX009 (ip), vehicle: saline
  T/C: 109 % of control

## N=C(N)c1ccc(Nc2ccc(C(=N)N)cc2)cc1
dose: 3.0 mg/kg/injection, schedule: Q01DX010 (ip), vehicle: saline
  T/C: 100 % of control
dose: 6.0 mg/kg/injection, schedule: Q01DX010 (ip), vehicle: saline
  T/C: 91 % of control and 95 % of control
dose: 12.0 mg/kg/injection, schedule: Q01DX010 (ip), vehicle: saline
  T/C: 91 % of control and 100 % of control
dose: 24.0 mg/kg/injection, schedule: Q01DX010 (ip), vehicle: saline
  T/C: 95 % of control

## Clc1ccc(NC2=NCCN=C(Nc3ccc(Cl)c(Cl)c3)SS2)cc1Cl
dose: 50.0 mg/kg/injection, schedule: Q01DX009 (ip), vehicle: Klucel (hydroxypropylcellulose) (HPC)
  T/C: 100 % of control
[10]
  T/C: 92 % of control
[12]
  T/C: 88 % of control

## Ic1ccccc1C[N+]12CN3CN(CN(C3)C1)C2
[9]
  T/C: 108 % of control
dose: 60.0 mg/kg/injection, schedule: Q01DX009 (ip), vehicle: alcohol
  T/C: 95 % of control
dose: 85.0 mg/kg/injection, schedule: Q01DX009 (ip), vehicle: alcohol
  T/C: 95 % of control
[4]
  T/C: 120 % of control
dose: 100.0 mg/kg/injection, schedule: Q01DX009 (ip), vehicle: saline
  T/C: 115 % of control
[5]
  T/C: 110 % of control
dose: 100.0 mg/kg/injection, schedule: Q04DX003 (ip), vehicle: saline
  T/C: 118 % of control
dose: 132.0 mg/kg/injection, schedule: Q01DX009 (ip), vehicle: saline with Tween-80
  T/C: 111 % of control
[7]
  T/C: 110 % of control
dose: 200.0 mg/kg/injection, schedule: Q04DX003 (ip), vehicle: saline
  T/C: 113 % of control
dose: 300.0 mg/kg/injection, schedule: Q01DX009 (ip), vehicle: saline with Tween-80
  T/C: 100 % of control and 123 % of control
[8]
  T/C: 95 % of control
dose: 400.0 mg/kg/injection, schedule: Q04DX003 (ip), vehicle: saline
  T/C: 113 % of control
